Measurements as given in a melting point compilation (Tetko et al.; mined from patent text by program, amines drawn as free bases though some values may be those of a salt).

Point of comparison: O=CNC1=CCc2cc(Cl)ccc21, melting point 155 °C. Against it:
- O=C1c2ccccc2C(=O)N1CCN1c2ccccc2N(Cc2ccccc2)C(=O)[C@H]2CCC[C@H]21 (relative stereo) — lower, 142 to 143 °C
- CCOC(=O)C1=C(C)NC(=S)N(C(=O)OCC)C1c1cccc(OC)c1 (centres undefined) — lower, 107 to 109 °C
- CC(C)(C)OC(=O)N1CCC(C#N)(c2ccccc2Cl)CC1 — higher, 165 to 166 °C
- Cn1cc2c(n1)CCCc1c-2cnn1C — higher, 176 to 178 °C
- C=CCN(c1ccc(Cl)cc1[N+](=O)[O-])S(=O)(=O)c1ccc(C)cc1 — lower, 77 to 78 °C
- COc1cccc(-c2cc(=O)c3c(OC)cc(OC)c(C4=CCN(C)CC4)c3o2)c1OC — higher, 195 to 196 °C
- O=C(O)CCc1cn(Cc2ccc(F)cc2)c2ccc(C(=O)CC(=O)C(=O)O)cc2c1=O — higher, 184 to 187 °C
- CC1(C(=O)CC#N)CC1 — lower, 32 to 33 °C
- CCCCCCCCCC(=O)Nc1ccc(S(=O)(=O)Nc2nnc(S(N)(=O)=O)s2)cc1 — higher, 242 to 243 °C
- O=C(O)C(=O)CC(=O)c1cc(C(=O)CC(=O)C(=O)O)n(Cc2ccc(F)cc2)n1 — higher, 215 to 217 °C
- CC(C)Sc1c(C(N)=O)sc2ccccc12 — higher, 183 to 185 °C
- CCCCCCCCNC(=O)CC(=O)c1c2ccccc2cc2ccccc12 — lower, 70 to 72 °C
- COc1ccc2c(C(=O)c3ccc(OC4CCCCC4N4CCOCC4)cc3)c(-c3ccc(OCCN4CCCC4)cc3)sc2c1 (centres undefined) — lower, 50 to 57 °C
- CCCn1cc(Cc2ccc(C(=O)NS(=O)(=O)c3ccccc3C)cc2OC)c2cc(C=CCC(=O)N(C)C)ccc21 — lower, 119 to 121 °C
- NCC1Cc2cc(F)cc(-c3cccnc3)c2O1 (centres undefined) — lower, 88 to 90 °C
- OCCN1CCC(=C2c3sccc3CCn3ncnc32)CC1 — lower, 150 °C
- CC(=O)Oc1ccc2c(c1)CCC1C2CCC2(C)C(OS(C)(=O)=O)CCC12 (centres undefined) — lower, 120 to 122 °C
- Cc1c(C(=O)c2ccccc2)c(=O)n(C)c(=O)n1C — lower, 132 to 134 °C
- N=C(NC=Cc1ccc([N+](=O)[O-])cc1)c1cccc(N)c1 — lower, 146 to 148 °C
- Cc1cccc(Nc2cc(Cl)nc(SCC(=O)NC(C)CO)n2)c1C (centres undefined) — higher, 170 to 172 °C
- C=CCSc1ccc(Oc2ccc(C)cc2)nn1 — lower, 115 to 117 °C
- CC(C)[C@H](NC(=O)CC[C@H](C)CNC(=O)COc1ccccc1)[C@@H](O)c1c(-c2ccccc2)c1=O — lower, 74 to 84 °C
- Nc1nc(N)nc(C2CCN(c3ccccc3)CC2)n1 — higher, 202 to 204 °C
- C[C@H](NS(=O)(=O)c1ccc2ccccc2c1)C(=O)Cl — lower, 134 to 136 °C
- CSCC(=O)[C@H](CC(C)C)NC(=O)[C@H](CC(C)C)NC(=O)OCc1ccccc1 — lower, 96 to 97 °C
- CN(OCc1ccccc1)S(=O)(=O)c1ccccc1S(N)(=O)=O — lower, 122 to 128 °C
- Nc1cc(-c2nc3ccccn3c2Br)c(F)cc1F — lower, 137 °C
- Cc1ccc2c(c1)CCCN2CC(NS(=O)(=O)c1c(Cl)cc(Cl)cc1Cl)C(C)C (centres undefined) — lower, 144 to 145 °C
- CC(C)(CCc1ccc(Cl)c(Cl)c1)CC(=O)O — lower, 106 to 108 °C
- CC(C(=O)CCc1ccc(Cl)cc1)n1cncn1 (centres undefined) — lower, 77 to 78 °C
- CSc1ccc(C(=O)NCc2ccc3c(c2)C(=O)N(C2(C)CCC(=O)NC2=O)C3=O)nc1 (centres undefined) — higher, 210 to 212 °C
- Nc1cc(Cl)cc2c(Cl)ccnc12 — lower, 132 to 134 °C
- CC(OCCO)n1cc(F)c(=O)[nH]c1=O (centres undefined) — lower, 118 to 120 °C
- OCC1OC(n2cnc3c(NNC4CCOc5ccccc54)ncnc32)C(O)C1O (centres undefined) — lower, 125 to 130 °C
- O=c1ccc(-c2c(-c3ccccc3)nn3ccccc23)nn1CC1CCCCN1 (centres undefined) — lower, 141 to 142 °C
- Cc1ccn(-c2nccc3[nH]c(=O)ccc23)n1 — higher, > 300 °C
- O=C1NC(=O)C(Cc2ccc(O)cc2)S1 (centres undefined) — lower, 151 to 152 °C
- CCC(C(C)=CC(CNC(=O)c1c[nH]cn1)=NO)[N+](=O)[O-] (centres undefined) — higher, 157 to 158 °C
- COc1ccc(NC(=O)NCc2cccc3c2C(=O)N(C2CCC(=O)NC2=O)C3=O)cc1 (centres undefined) — higher, 205 to 207 °C
- COC(=O)NN=C1CCCCCC1 — lower, 75 °C
- CC(=O)SCC(C)C(=O)N(CC(=O)O)C1CC1 (centres undefined) — lower, 86 to 88 °C
- CC(C)c1ccc(C2(OC(=O)c3ccccc3)C(=O)c3ccccc3C2=O)c(O)c1 — lower, 117 to 119 °C
- CCCCCS(=O)(=O)NC(=O)/C=C/c1ccc(OCC(O)COC(C)C)cc1Oc1ncc(C(F)(F)F)cc1Cl (centres undefined) — lower, 86 to 88 °C
- CNS(=O)(=O)c1ccc([N+](=O)[O-])cc1[N+](=O)[O-] — the same, 155 °C
- O=C1CCC2(N1)C1C=CC(C1)C2c1ccccc1 (centres undefined) — not separable, 152 to 155 °C
- CC(C)(C)N1C(=O)c2cnc(-c3ccccc3)nc2N(C(=O)CN2CCCCC2)c2ccccc21 — higher, 193 to 194 °C
- Cc1c(-c2ccc(O)cc2)n(Cc2ccc(C#CCN3CCCCC3)cc2)c2ccc(O)cc12 — lower, 118 to 123 °C
- CN1CCN(c2nccnc2Cl)CC1 — lower, 34 to 36 °C
- CCCCCCC1(CCCCCC)c2cc(Cl)ccc2-c2ccc(Cl)cc21 — lower, 66 to 67 °C
- O=S1(=O)N=CN(C2CC2)c2cccc(F)c21 — higher, 156 to 157 °C
- CC(C)(C)c1ccc2occ(N)c(=S)c2c1 — higher, 168 °C
- COc1ccc(CCOc2ccnc(-c3cccc(C(=O)O)c3)n2)cc1OC — higher, 193 to 194 °C
- CC(C)(C)[Si](Oc1ccc2[nH]c(=O)oc(=O)c2c1)(c1ccccc1)c1ccccc1 — higher, 185 °C
- CC(C)(C)NC(CO)c1cc(Cl)c(N)c(C(F)(F)F)c1 (centres undefined) — lower, 85 to 90 °C
- Cn1nc(S(=O)(=O)c2ccccc2)c2cc(N3CCN(Cc4ccccc4)CC3)ccc21 — higher, 195 to 197 °C
- COC(=O)C(C)Oc1ccc(Oc2ncc(Cl)cc2F)cc1 (centres undefined) — lower, 58 to 59 °C
- COc1ncnc(OC)c1C(C(C)C)N(C)C(=O)Cc1ccc(Cl)cc1 (centres undefined) — lower, 107 to 109 °C
- COc1ccc2c(c1)CCC1C2CCC2(C)C(=NNS(=O)(=O)c3ccccc3)CCC12 (centres undefined) — higher, 183 to 185 °C
- COc1cccc(CC2NC(=O)NC2=O)c1OCc1ccccc1 (racemic) — higher, 202 to 204 °C
- COc1ccc2[nH]c(SCc3ncc(C)c(N4CCCC4)c3Cl)nc2c1 — not separable, 152 to 158 °C
- COc1c(Cl)nc(SC)nc1NN — lower, 118 to 119 °C
- O=C(O)CCCCCCC(O)C(=O)O (centres undefined) — lower, 86 to 92 °C
- CC(Oc1cccc(Oc2ccc(C(F)(F)F)cc2)c1)C(=O)OCCS(=O)Cc1ccccc1 (centres undefined) — lower, 110 to 112 °C
- CCOc1ccc2nc3[nH]cnc(=O)c3cc2c1OC — higher, 330 to 331 °C
- O=S(=O)(c1ccccc1)n1c2cc(O)c(O)cc2c2ccc(O)c(O)c21 — higher, 176 to 178 °C
- O=C(NC(=O)c1c(F)cccc1F)Nc1cc(Cl)cc(C(F)(F)F)c1F — higher, 187 to 189 °C
- CC(=O)c1c(N(C)C)nn2ccccc12 — lower, 59.5 to 60 °C
- O=C(c1ccc([N+](=O)[O-])cc1)c1cc2c(c(Cl)c1Cl)OC(C(=O)O)C2 (centres undefined) — higher, 243 to 245 °C
- COc1cccc(CC(=O)O)c1OCCCc1ccc(OC(C)C)cc1Oc1ncc(C(F)(F)F)cc1Cl — lower, 100 to 101 °C
- O=C(NCC(F)(F)F)c1cccc(CN2CCN(c3ccc(NC(=O)c4ccccc4-c4ccc(C(F)(F)F)cc4)cc3)CC2)c1 — higher, 205 to 207 °C
- NC(=O)c1cc(C(O)CN(Cc2ccccc2)Cc2ccccc2)cc2cc[nH]c12 (centres undefined) — lower, 116 to 118 °C
- COc1cccc(CC(O)C2CCNCC2)c1OC (centres undefined) — lower, 82 to 84 °C
- O=C(COC(=O)Cc1ccccc1Nc1c(Cl)cccc1Cl)NCCO[N+](=O)[O-] — lower, 81 to 83 °C
- COC(=O)[C@@H](C)Nc1ncccc1NC(=O)c1ccc(Cl)cc1 — lower, 125 to 134 °C
- CC(=O)c1cc(CO)c(OCCCCC#N)cc1OCCCCC#N — lower, 98 to 99 °C
- O=C1NCCN1CCN1CCN([C@@H]2C[C@@H](c3ccc(F)cc3)c3ccccc32)CC1 — lower, 94 to 97 °C
- Fc1ccc(F)c(CN2CCNc3ncc(-c4ccc(N5CCOCC5)nc4)cc32)c1 — higher, 206 to 207 °C
- C[C@]12CC(=C(F)F)[C@H]3[C@@H](CCC4=CC(=O)CC[C@@H]43)[C@@H]1CCC2=O — higher, 158 to 164 °C
- O=C1Nc2cccc(O)c2C12COc1cc3c(cc12)OCCO3 (centres undefined) — higher, > 250 °C
- NC(=O)c1ccccc1C1c2ccc(Cl)cc2Oc2cc(Cl)ccc21 — higher, 218 to 220 °C
- NS(=O)(=O)c1ccc(NC(=O)Nc2ccc(I)cc2)cc1 — higher, 275 to 277 °C
- CC1(C)OC(=O)Nc2c(F)cc(-c3csc(C#N)c3)cc21 — higher, 250 to 251 °C
- Cc1ccc2c(c1)CC(=O)c1cc(CC(=O)O)ccc1O2 — not separable, 154 to 155 °C
- CCSc1scnc1C(=O)O — higher, 158 to 159 °C
- COC(=O)c1nccnc1Nc1ccc(Cl)cc1 — lower, 135 to 136 °C
- COc1ccc(-c2coc(C(=O)NNC(=O)c3ccc(O)c(C#N)c3)c2-c2ccccc2)cc1 — lower, 146 to 148 °C
- COCCOc1cc(N(C)S(=O)(=O)c2ccccn2)c2[nH]c(C3=NCC(CN4CCS(=O)(=O)CC4)S3)cc2c1 (centres undefined) — lower, 115 °C
- O=C(O)c1ccc2cc(OCCC(c3ccccc3)(c3ccccc3)c3ccccc3)ccc2c1 — higher, 243 to 244 °C
- Nc1cccc(-c2ccc(CCN(CC3CCCCC3)CC3CCCCC3)cc2)n1 — lower, 75 to 85 °C
- CC1CC(=O)C(C(=O)c2ccc(S(C)(=O)=O)cc2[N+](=O)[O-])C(=O)C1(C)C (centres undefined) — higher, 166 to 167 °C
- CCC1=C(C#N)C(c2cccc(Cl)c2Cl)c2c[nH]nc2N1 (centres undefined) — higher, > 300 °C
- C[C@@H](N(CCO)C(=O)c1ccc(C(F)(F)F)cc1)[C@](O)(Cn1cncn1)c1ccc(Cl)cc1Cl (relative stereo) — higher, 185 to 189 °C
- O=C(O)C1COc2cc(Cl)c(Cl)cc2O1 (centres undefined) — not separable, 155 to 158 °C
- CNC(=O)N(N=C(C)C)C(=O)c1ccc(Cl)cc1 — lower, 119 to 123 °C
- CC(C)CNc1cccnc1N1CCN(C(=O)c2ccc(C(=O)NC(C)C)cn2)CC1 — lower, 132 to 134 °C
- Cc1nn(-c2ccc(F)cc2)cc1C(=O)Nc1ccc(CC(C)C)c(C#N)c1 — higher, 178 to 179 °C
- CNC(=S)NCCCCC(NC(=O)C(Cc1cccc2ccccc12)Cc1cccc2ccccc12)C(=O)NC(CC(C)C)C(O)C(=O)OC(C)C (centres undefined) — lower, 93 to 95 °C
- Cc1onc(-c2ccccc2)c1-c1[nH]c2ccccc2c1C(=O)C(=O)N(C)C — higher, 258 to 260 °C
